Source: PubChem BioAssay AID248 (DTP/NCI, 2004)
“And” between values parts separate entries of the source, which are not always exact repeats. Equal values may be shown once. Inconclusive results and toxic doses are left out. Cut-off read from the data, not from the text of the source: active = T/C of 150% or more; inactive = T/C below 125%.

Tested on: L1210 leukemia ip in BDF1 mice, survival T/C
Experiment: NCI In Vivo Anticancer Drug Screen. Data for tumor model L1210 Leukemia (intraperitoneal) in B6D2F1 (BDF1) mice
Details: endpoint: mean survival time, higher = longer survival
In short: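 Tumor cells were implanted, animals were treated, and survival was followed. The result divides the treated measurement by the vehicle-control measurement.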

[1] = dose: 100.0 mg/kg/injection, schedule: Q01DX009 (ip), vehicle: Klucel (hydroxypropylcellulose) (HPC)
[2] = dose: 100.0 mg/kg/injection, schedule: Q04DX003 (ip), vehicle: Klucel (hydroxypropylcellulose) (HPC)
[3] = dose: 200.0 mg/kg/injection, schedule: Q01DX009 (ip), vehicle: Klucel (hydroxypropylcellulose) (HPC)
[4] = dose: 200.0 mg/kg/injection, schedule: Q04DX003 (ip), vehicle: Klucel (hydroxypropylcellulose) (HPC)
[5] = dose: 400.0 mg/kg/injection, schedule: Q04DX003 (ip), vehicle: Klucel (hydroxypropylcellulose) (HPC)
[6] = dose: 100.0 mg/kg/injection, schedule: Q04DX003 (ip), vehicle: saline with Tween-80
[7] = dose: 200.0 mg/kg/injection, schedule: Q04DX003 (ip), vehicle: saline with Tween-80
[8] = dose: 400.0 mg/kg/injection, schedule: Q04DX003 (ip), vehicle: saline with Tween-80
[9] = dose: 100.0 mg/kg/injection, schedule: Q04DX002 (ip), vehicle: Klucel (hydroxypropylcellulose) (HPC)
[10] = dose: 100.0 mg/kg/injection, schedule: Q01DX009 (ip), vehicle: saline
[11] = dose: 100.0 mg/kg/injection, schedule: Q04DX003 (ip), vehicle: saline
[12] = dose: 200.0 mg/kg/injection, schedule: Q04DX003 (ip), vehicle: saline
[13] = dose: 400.0 mg/kg/injection, schedule: Q04DX003 (ip), vehicle: saline
[14] = dose: 50.0 mg/kg/injection, schedule: Q01DX009 (ip), vehicle: saline
[15] = dose: 100.0 mg/kg/injection, schedule: Q01DX001 (ip), vehicle: saline
[16] = dose: 200.0 mg/kg/injection, schedule: Q01DX001 (ip), vehicle: saline
[17] = dose: 200.0 mg/kg/injection, schedule: Q01DX009 (ip), vehicle: saline
[18] = dose: 50.0 mg/kg/injection, schedule: Q04DX002 (ip), vehicle: Klucel (hydroxypropylcellulose) (HPC)

Measured: T/C

CNC[C@@H](O)c1ccc(O)c(O)c1
inactive: dose: 0.1 mg/kg/injection, schedule: Q01DX009 (ip), vehicle: saline 94 % of control | dose: 0.2 mg/kg/injection, schedule: Q01DX001 (ip), vehicle: saline 112 % of control | dose: 0.2 mg/kg/injection, schedule: Q01DX009 (ip), vehicle: saline 109 % of control | dose: 0.31 mg/kg/injection, schedule: Q01DX009 (ip), vehicle: saline 111 % of control | dose: 0.4 mg/kg/injection, schedule: Q01DX001 (ip), vehicle: saline 106 % of control | dose: 0.4 mg/kg/injection, schedule: Q01DX009 (ip), vehicle: saline 102 % of control | dose: 0.4 mg/kg/injection, schedule: Q04DX003 (ip), vehicle: saline 108 % of control | dose: 0.59 mg/kg/injection, schedule: Q01DX009 (ip), vehicle: saline 95 % of control | dose: 0.62 mg/kg/injection, schedule: Q01DX009 (ip), vehicle: saline 98 % of control | dose: 0.8 mg/kg/injection, schedule: Q01DX001 (ip), vehicle: saline 104 % of control | dose: 0.8 mg/kg/injection, schedule: Q04DX003 (ip), vehicle: saline 113 % of control | dose: 0.9 mg/kg/injection, schedule: Q01DX009 (ip), vehicle: saline 97 % of control | dose: 1.1 mg/kg/injection, schedule: Q01DX001 (ip), vehicle: saline 96 % of control | dose: 1.25 mg/kg/injection, schedule: Q01DX009 (ip), vehicle: saline 101 % of control | dose: 1.3 mg/kg/injection, schedule: Q01DX009 (ip), vehicle: saline 97 % of control | dose: 1.6 mg/kg/injection, schedule: Q04DX003 (ip), vehicle: saline 98 % of control | dose: 2.3 mg/kg/injection, schedule: Q04DX003 (ip), vehicle: saline 103 % of control | dose: 2.5 mg/kg/injection, schedule: Q01DX009 (ip), vehicle: saline 102 % of control | dose: 3.6 mg/kg/injection, schedule: Q04DX003 (ip), vehicle: saline 109 % of control

Cc1ccc(S(=O)(=O)Oc2ccc(I)cc2)cc1
inactive: [1] 107 % of control | [2] 100 % of control | [3] 98 % of control | [4] 105 % of control | dose: 400.0 mg/kg/injection, schedule: Q01DX009 (ip), vehicle: Klucel (hydroxypropylcellulose) (HPC) 103 % of control | [5] 97 % of control

O=C(CCN1CC1)OCC1CC1
inactive: dose: 2.5 mg/kg/injection, schedule: Q01DX009 (ip), vehicle: Klucel (hydroxypropylcellulose) (HPC) 103 % of control | dose: 5.0 mg/kg/injection, schedule: Q01DX009 (ip), vehicle: Klucel (hydroxypropylcellulose) (HPC) 97 % of control | dose: 10.0 mg/kg/injection, schedule: Q01DX009 (ip), vehicle: Klucel (hydroxypropylcellulose) (HPC) 105 % of control | dose: 20.0 mg/kg/injection, schedule: Q01DX009 (ip), vehicle: Klucel (hydroxypropylcellulose) (HPC) 114 % of control | dose: 20.0 mg/kg/injection, schedule: Q04DX003 (ip), vehicle: Klucel (hydroxypropylcellulose) (HPC) 98 % of control | dose: 40.0 mg/kg/injection, schedule: Q04DX003 (ip), vehicle: Klucel (hydroxypropylcellulose) (HPC) 101 % of control | dose: 80.0 mg/kg/injection, schedule: Q04DX003 (ip), vehicle: Klucel (hydroxypropylcellulose) (HPC) 97 % of control

CNC(=O)C1C2C=CC(C2)C1C(=O)NC (configuration not stated)
inactive: [6] 93 % of control and 100 % of control and 87 % of control | [7] 96 % of control and 100 % of control and 106 % of control | [8] 93 % of control and 100 % of control (2×)

Cc1cc(N(CCCl)CCCl)ccc1C=Nc1cccnc1
inactive: dose: 50.0 mg/kg/injection, schedule: Q01DX001 (ip), vehicle: other 100 % of control | dose: 100.0 mg/kg/injection, schedule: Q01DX001 (ip), vehicle: other 100 % of control | dose: 200.0 mg/kg/injection, schedule: Q01DX001 (ip), vehicle: other 92 % of control | dose: 400.0 mg/kg/injection, schedule: Q01DX001 (ip), vehicle: other 94 % of control

CC1C(N2CCCCC2)N(C(=O)c2ccccc2)SC12c1ccccc1-c1ccccc12 (configuration not stated)
inactive: [9] 94 % of control | dose: 200.0 mg/kg/injection, schedule: Q04DX002 (ip), vehicle: Klucel (hydroxypropylcellulose) (HPC) 102 % of control | dose: 400.0 mg/kg/injection, schedule: Q04DX002 (ip), vehicle: Klucel (hydroxypropylcellulose) (HPC) 102 % of control

C=CCN(CC=C)S(=O)(=O)c1cccc(C(=O)O)c1
inactive: [2] 103 % of control | [4] 92 % of control | [5] 105 % of control

CCc1ccccc1N=Nc1sc(N)nc1C
inactive: dose: 75.0 mg/kg/injection, schedule: Q01DX001 (ip), vehicle: saline 94 % of control | dose: 150.0 mg/kg/injection, schedule: Q01DX001 (ip), vehicle: saline 100 % of control | dose: 300.0 mg/kg/injection, schedule: Q01DX001 (ip), vehicle: saline 97 % of control

CC1(CCN2CCC3(CC2)C(=O)NCN3c2ccccc2)Oc2ccccc2O1
inactive: [2] 104 % of control | [4] 111 % of control | [5] 93 % of control

CCCCCCCCCCCCCCCC(=O)N(CCC#N)CCCCCCCCCN(CCC#N)C(=O)CCCCCCCCCCCCCCC
inactive: [10] 86 % of control | [11] 94 % of control | [12] 87 % of control | dose: 400.0 mg/kg/injection, schedule: Q01DX009 (ip), vehicle: saline 91 % of control | [13] 92 % of control

CCCC(C)OP(=O)(OCC)OCC (configuration not stated)
inactive: [1] 94 % of control | [3] 100 % of control

OC(c1ccccc1)(c1ccccc1)C1C(=C(c2ccccc2)c2ccccc2)C1c1ccccc1 (configuration not stated)
inactive: dose: 100.0 mg/kg/injection, schedule: Q01DX001 (ip), vehicle: steriod suspending solution 104 % of control | dose: 200.0 mg/kg/injection, schedule: Q01DX001 (ip), vehicle: steriod suspending solution 93 % of control | dose: 400.0 mg/kg/injection, schedule: Q01DX001 (ip), vehicle: steriod suspending solution 95 % of control

O=C1OCCN1CCO
inactive: [11] 97 % of control | [12] 102 % of control | [13] 108 % of control

[Se]=P(N1CCCCC1)(N1CCCCC1)N1CCCCC1
inactive: dose: 25.0 mg/kg/injection, schedule: Q01DX009 (ip), vehicle: Klucel (hydroxypropylcellulose) (HPC) 98 % of control | dose: 50.0 mg/kg/injection, schedule: Q01DX009 (ip), vehicle: Klucel (hydroxypropylcellulose) (HPC) 104 % of control | [1] 87 % of control

CNC1(C(N)=O)CCCCC1
inactive: [14] 91 % of control | [15] 102 % of control | [10] 96 % of control | [11] 100 % of control | [16] 107 % of control | [17] 106 % of control | [12] 100 % of control | dose: 400.0 mg/kg/injection, schedule: Q01DX001 (ip), vehicle: saline 104 % of control | [13] 96 % of control

COc1ccc(Oc2cccc3c2CCN(C)C3)cc1
inactive: dose: 12.5 mg/kg/injection, schedule: Q04DX002 (ip), vehicle: Klucel (hydroxypropylcellulose) (HPC) 102 % of control | dose: 25.0 mg/kg/injection, schedule: Q04DX002 (ip), vehicle: Klucel (hydroxypropylcellulose) (HPC) 115 % of control | [18] 97 % of control

Nc1cccc(NC(=O)Nc2ccccc2)c1
inactive: [18] 105 % of control | [9] 91 % of control

CCNC(=O)C(=O)c1ccccc1NC(C)=O
inactive: [2] 99 % of control | [4] 100 % of control | [5] 96 % of control

Cc1ccc(S(=O)(=O)OCC2OCC(OC(=O)c3ccccc3)C(OC(=O)c3ccccc3)C2OC(=O)c2ccccc2)cc1 (configuration not stated)
inactive: [6] 93 % of control | [7] 93 % of control | [8] 90 % of control

O=C(O)CCCC1CCc2ccccc2C1 (configuration not stated)
inactive: dose: 100.0 mg/kg/injection, schedule: Q01DX001 (ip), vehicle: Klucel (hydroxypropylcellulose) (HPC) 104 % of control | dose: 200.0 mg/kg/injection, schedule: Q01DX001 (ip), vehicle: Klucel (hydroxypropylcellulose) (HPC) 102 % of control | dose: 400.0 mg/kg/injection, schedule: Q01DX001 (ip), vehicle: Klucel (hydroxypropylcellulose) (HPC) 103 % of control

NCc1ccc([N+](=O)[O-])cc1
inactive: [14] 93 % of control | [15] 96 % of control | [10] 96 % of control | [11] 101 % of control | [16] 104 % of control | [17] 110 % of control | [12] 93 % of control
